Patent publication US10793599B2, “MPHOSPH1-derived peptide, and vaccine including same” (OncoTherapy Science, Inc., priority 2015, dated 2020)
“Also recorded” adds a separate entry of the source.

Key:
[1] = tested on: peptide-pulsed C1R-A11; experiment: IFN-gamma ELISA of CTL lines and CTL clones (HLA-A*11:01); format: cell-based, human; settings: for peptide-specific IFN-gamma production of CTL clone (ELISA): CTL clone by limiting dilution, against C1R-A11 pulsed with the peptide; for IFN-gamma production by CTL line (ELISA): CTL line against C1R-A11 pulsed with the peptide
Protocol: (§1) CTLs were propagated using methods similar to those reported by Riddell et al. (Walter E A et al., N Engl J Med 1995, 333(16): 1038-44; Riddell S R et al., Nat Med 1996, 2(2): 216-23). The CTLs were cultured in 25 ml 5% ABS/AIM-V medium together with two types of Mitomycin C-treated human B lymphoblastoid cell lines (5×10^6 cells/25 ml medium each) and an anti-CD3 antibody (final concentration: 40 ng/ml). On the day after beginning of the culturing, IL-2 (final concentration: 120 IU/ml) was added to the culture. On days 5, 8 and 11, the medium was changed to a 5% ABS/AIM-V medium containing IL-2 (final concentration: 30 IU/ml) (Tanaka H et al., Br J Cancer 2001, 84(1): 94-9; Umano Y et al., Br J Cancer 2001, 84(8): 1052-7; Uchida N et al., Clin Cancer Res 2004, 10(24): 8577-86; Suda T et al., Cancer Sci 2006, 97(5): 411-9; Watanabe T et al., Cancer Sci 2005, 96(8): 498-506).
(§2) After induction of CTLs in vitro, the CTLs were seeded onto 96 round-bottomed microtiter plates (Nalge Nunc International) at 1 cell/well or 10 cells/well. The CTLs were cultured with two types of Mitomycin C-treated human B lymphoblastoid cell lines (1×10^4 cells/well each) in a total of 150 micro-1/well 5% ABS/AIM-V medium with an anti-CD3 antibody (final concentration: 30 ng/ml) and IL-2 (final concentration: 125 IU/ml). Ten days later, 50 micro-15% ABS/AIM-V medium containing 500 IU/ml IL-2 was added to the culture. On day 14 or after.
(§3) Peptide-pulsed C1R-A11 (1×10^4 cells/well) was prepared as the target cell. The IFN-gamma ELISPOT assay and IFN-gamma ELISA were performed according to the assay kit manufacturer's manual.

[2] = tested on: peptide-pulsed C1R-A11; experiment: In vitro CTL induction, IFN-gamma ELISPOT assay (HLA-A*11:01); format: cell-based, human; settings: CD8 positive T cells of HLA-A*11:01-positive donors after three stimulations with peptide-pulsed DCs, against peptide-pulsed C1R-A11
Protocol: (§4) Monocyte-derived dendritic cells (DCs) were used as the antigen-presenting cell to induce a specific cytotoxic T lymphocyte (CTL) response against peptides presented on human leukocyte antigens (HLAs). As already reported in literatures, DCs were generated in vitro (Nakahara S et al., Cancer Res 2003, 63(14): 4112-8). Specifically, peripheral-blood mononuclear cells (PBMCs) collected from healthy volunteers (HLA-A*11:01-positive) with the Ficoll-Paque plus solution (Pharmacia) were seeded in plastic tissue culture dishes (Corning) to let the monocytes in the PBMCs adhere to the dishes. This was cultured in the presence of 1000 IU/ml granulocyte macrophage colony-stimulating factor (R&D System) and 1000 IU/ml interleukin (IL)-4 (R&D System) for seven days. An AIM-V medium (Invitrogen) containing 5% inactivated AB-type serum (ABS) was used as the medium. DCs that were induced to differentiate from monocytes using the cytokines were pulsed with 20 micro-g/ml of each synthesized peptide (37 degrees C., three hours). Peptide pulsing was carried out in an AIM-V medium containing 3 micro-g/ml beta 2-microglobulin. These peptide-pulsed DCs were inactivated by X-ray irradiation (20 Gy), mixed in a 1:20 ratio with autologous CD8 positive T cells obtained by positive selection using the CD8 Positive Isolation Kit (Invitrogen) (1.5×10^4 DCs and 3×10^5 CD8 positive T cells), and cultured in a 48-well plate (Corning). Each well contained 0.5 ml of the 5% ABS/AIM-V medium, and IL-7 (R&D System) was added thereto (final concentration: 10 ng/ml). Two days after the start of the culture, IL-2 (Novartis) was added (final concentration: 20 IU/ml). On day 7 and day 14 of culture, the CD8 positive T cells were further stimulated with peptide-pulsed DCs. The DCs were prepared at the time of use by the same method as above. After day 21 (after three DC stimulations), IFN-gamma production against the peptide-pulsed C1R-A11 was confirmed using human interferon (IFN)-gamma enzyme-linked immunospot (ELISPOT) assay (Tanaka H et al., Br J Cancer 2001, 84(1): 94-9; Umano Y et al., Br J Cancer 2001, 84(8): 1052-7; Uchida N et al., Clin Cancer Res 2004, 10(24): 8577-86; Suda T et al., Cancer Sci 2006, 97(5): 411-9; Watanabe T et al., Cancer Sci 2005, 96(8): 498-506).
as §3

[3] = tested on: COS7 cells expressing MPHOSPH1 and HLA-A*11:01; experiment: IFN-gamma production of CTL clone against target cells expressing MPHOSPH1 and HLA-A*11:01; format: cell-based, African green monkey
Protocol: as §3
A cDNA encoding the MPHOSPH1 or HLA-A*11:01 gene was amplified by PCR. The PCR-amplified product was each incorporated into an expression vector. Either or both of the MPHOSPH1 gene-expressing vector and the HLA-A*11:01 gene-expressing vector were introduced into COS7, which is a cell line negative for HLA, using Lipofectamine 2000 (Invitrogen) following the manufacturer's recommended protocol. On the day after gene introduction, COS7 cells were detached and harvested using versene (Invitrogen), and used as the target cell for confirmation of IFN-gamma production (5×10^4 cells/well).

[4] = tested on: peptide-pulsed C1R-A33; experiment: In vitro CTL induction, IFN-gamma ELISPOT assay (HLA-A*33:03); format: cell-based, human; settings: CD8 positive T cells of HLA-A*33:03-positive donors after three stimulations with peptide-pulsed DCs, against peptide-pulsed C1R-A33
Protocol: as §4, with “(HLA-A*33:03-positive)” for “(HLA-A*11:01-positive)”, “there” for “thereto”, “C1R-A33” for “C1R-A11”, “1052-7:” for “1052-7;”
(§5) Peptide-pulsed C1R-A33 (1×10^4 cells/well) was prepared as the target cell. The IFN-gamma ELISPOT assay and IFN-gamma ELISA assay were performed according to the assay kit manufacturer's manual.

[5] = tested on: peptide-pulsed C1R-A33; experiment: IFN-gamma ELISA of CTL lines and CTL clones (HLA-A*33:03); format: cell-based, human; settings: listed as MPHOSPH1-A33-10-57
Protocol: as §1
as §2, with “micro-l/well” for “micro-1/well”, “micro-l 5%” for “micro-15%”, “culture.” for “culture. On day 14 or after.”
as §5

Question: For “STSFEISRNK (a peptide derived from MPHOSPH1) [SEQ ID NO: 52]”, which “peptide-specific IFN-gamma production of CTL clone (ELISA)” value ([1]; listed as MPHOSPH1-A11-10-1546) is on record?
Answer: Its value is “showed a peptide-specific IFN-gamma production”.

Question: And the “IFN-gamma production by CTL line (ELISA)” value ([1]; listed as MPHOSPH1-A11-10-1546)?
Answer: The value was “CTL lines that produce IFN-gamma in a peptide-specific manner were established; also recorded: observed”.

Question: And the “peptide-specific IFN-gamma production (ELISPOT)” value ([2]; listed as MPHOSPH1-A11-10-1546)?
Answer: Its value is “Peptide-specific IFN-gamma production was observed”.

Question: And the “IFN-gamma production of peptide-specific CTL clone” value ([3]; against COS7 cells expressing both MPHOSPH1 and HLA-A*11:01)?
Answer: The value was “showed IFN-gamma production”.

Question: What about the “IFN-gamma production of peptide-specific CTL clone” value ([3]; against negative control COS7 cells expressing either one of MPHOSPH1 and HLA-A*11:01, listed as MPHOSPH1-A11-10-1546) of the same sequence?
Answer: Its value is “a significant IFN-gamma production was not shown; also recorded: a significant IFN-gamma production was not observed”.

Question: How did the “peptide-specific IFN-gamma production (ELISPOT)” value ([4]; listed as MPHOSPH1-A33-9-1663) turn out when “SSKKTYSLR (a peptide derived from MPHOSPH1) [SEQ ID NO: 48]” was run?
Answer: Its value is “peptide-specific IFN-gamma production was not observed”.

Question: “TINEFQNLK (a peptide derived from MPHOSPH1) [SEQ ID NO: 4]” was tested. Which “peptide-specific IFN-gamma production (ELISPOT)” value ([2]; listed as MPHOSPH1-A11-9-739) did it give?
Answer: Its value is “peptide-specific IFN-gamma production was not observed”.

Question: What does the source list for “SSARTQNLK (a peptide derived from MPHOSPH1) [SEQ ID NO: 12]”?
Answer: peptide-specific IFN-gamma production of CTL clone (ELISA) ([1]; listed as MPHOSPH1-A11-9-1227): showed a peptide-specific IFN-gamma production; IFN-gamma production by CTL line (ELISA) ([1]; listed as MPHOSPH1-A11-9-1227): CTL lines that produce IFN-gamma in a peptide-specific manner were established; also recorded: observed; peptide-specific IFN-gamma production (ELISPOT) ([2]; listed as MPHOSPH1-A11-9-1227): Peptide-specific IFN-gamma production was observed

Question: Which “peptide-specific IFN-gamma production (ELISPOT)” value ([2]; listed as MPHOSPH1-A11-9-762) does the source give for “TSSLIINNK (a peptide derived from MPHOSPH1) [SEQ ID NO: 5]” here?
Answer: Its value is “Peptide-specific IFN-gamma production was observed”.

Question: For “SIIGVNLATK (a peptide derived from MPHOSPH1) [SEQ ID NO: 53]”, which “peptide-specific IFN-gamma production (ELISPOT)” value ([2]; listed as MPHOSPH1-A11-10-1675) is on record?
Answer: The value was “Peptide-specific IFN-gamma production was observed”.

Question: How did the “peptide-specific IFN-gamma production (ELISPOT)” value ([4]; listed as MPHOSPH1-A33-10-57) turn out when “DYLQVCLRIR (a peptide derived from MPHOSPH1) [SEQ ID NO: 170]” was run?
Answer: Its value is “Peptide-specific IFN-gamma production was observed”.

Question: And the “peptide-specific IFN-gamma production of CTL clone (ELISA)” value ([5]; CTL clone by limiting dilution, against C1R-A33 pulsed with the peptide)?
Answer: The value was “showed a peptide-specific IFN-gamma production”.

Question: And the “IFN-gamma production by CTL line (ELISA)” value ([5]; CTL line against C1R-A33 pulsed with the peptide)?
Answer: Its value is “CTL lines that produce IFN-gamma in a peptide-specific manner were established; also recorded: observed”.

Question: How did the “peptide-specific IFN-gamma production (ELISPOT)” value ([4]; listed as MPHOSPH1-A33-9-1474) turn out when “DLQKWREER (a peptide derived from MPHOSPH1) [SEQ ID NO: 119]” was run?
Answer: Its value is “Peptide-specific IFN-gamma production was observed”.

Question: Which “peptide-specific IFN-gamma production (ELISPOT)” value ([2]; listed as MPHOSPH1-A11-9-96) does the source give for “CILGRLSEK (a peptide derived from MPHOSPH1) [SEQ ID NO: 27]” here?
Answer: The value was “Peptide-specific IFN-gamma production was observed”.
